Results from paper PMC9322761, “Design, Synthesis and Biological Characterization of Histone Deacetylase 8 (HDAC8) Proteolysis Targeting Chimeras (PROTACs) with Anti-Neuroblastoma Activity” (International Journal of Molecular Sciences, 2022).

Assays:
SK-N-BE(2)-C cells = assay: Colony formation assay in neuroblastoma cells; format: cell-based, human; details: 5 and 10 μM, treatment 96 h, then 6 days without treatment
Procedure: In order to measure the functional consequence of HDAC8 inhibition, two different cell lines were used: SK-N-BE(2)-C cells, which display MYCN amplification and non-functional p53; and IMR-32 cells having p53 wild type, which both respond with growth arrest and signs of neuronal differentiation upon knockdown or selective inhibition of HDAC8. Growth arrest was determined by colony formation and viability assays. Cells were treated with 5 and 10 μM of each of the CRBN_ based HDAC8 PROTACs having a triazole linker (CRBN_1d, CRBN_1e, CRBN_1f) for 96 h, followed by culturing for another 6 days without treatment (Figure 5A). This assesses whether the treatment impairs the clonogenic growth capacity of tumor cells, indicating effectiveness of compounds on the survival and proliferation of tumor cells.
In six-well plates, 500 cells were seeded and treated as indicated. Viable colonies were stained after a minimum of 10 days with crystal violet. For quantification, the mean intensity of each well of the 8-bit binary picture was measured with ImageJ software (U. S. National Institutes of Health, Bethesda, MD, USA; http://imagej.nih.gov/ij/ (accessed on 1 March 2022)).
Figure 5 (A) Neuroblastoma SK-N-BE(2)-C cells; Colony Assay, 10 days (compound treatment within first 96 h). Stained with crystal violet and quantified with ImageJ. (B,C) Trypan Blue assay for detection of dead cells. Neuroblastoma IMR-32 cells were either treated with 5 µM (B) or 10 µM (C). (D,E) Cell proliferation assessed via counting of viable cells. IMR-32 cells were either treated with 5 µM (D) or 10 µM (E) PROTACs. HDAC8i PCI-34501 served as a positive control, untreated (MEM) and solvent (DMSO) treated cells served as negative controls.

HDAC1 = HDAC1 (Homo sapiens, UniProt Q13547); assay: In vitro HDAC inhibitory activity assay, recombinant HDAC1 (fluorogenic substrate ZMAL); format: biochemical; set-up: purchased BPS Biosciences
Procedure: The in vitro testing on recombinant HDACs was performed as previously described. Recombinant human HDAC1 and −6 were purchased from BPS Biosciences. The enzyme inhibition was determined by using a reported homogenous fluorescence assay. […] Fluorescence intensity was measured at an excitation wavelength of 390 nm and an emission wavelength of 460 nm in a microtiter plate reader (BMG Polarstar).
Inhibition was measured at increasing concentration and IC50 was calculated by nonlinear regression with Origin 9.0G software.

HDAC8 = biological target: T1, HDAC8 (Homo sapiens, UniProt Q9BY41); assay: HDAC8 degradation in SK-N-BE(2)-C neuroblastoma cells (Western blot); format: cell-based; set-up: endogenous in cells; host or cells: SK-N-BE(2)-C; details: SK-N-BE(2)-C cells; for HDAC8 degradation: up to 10 µM, Western blot
T1 sequence (Q9BY41 1-377): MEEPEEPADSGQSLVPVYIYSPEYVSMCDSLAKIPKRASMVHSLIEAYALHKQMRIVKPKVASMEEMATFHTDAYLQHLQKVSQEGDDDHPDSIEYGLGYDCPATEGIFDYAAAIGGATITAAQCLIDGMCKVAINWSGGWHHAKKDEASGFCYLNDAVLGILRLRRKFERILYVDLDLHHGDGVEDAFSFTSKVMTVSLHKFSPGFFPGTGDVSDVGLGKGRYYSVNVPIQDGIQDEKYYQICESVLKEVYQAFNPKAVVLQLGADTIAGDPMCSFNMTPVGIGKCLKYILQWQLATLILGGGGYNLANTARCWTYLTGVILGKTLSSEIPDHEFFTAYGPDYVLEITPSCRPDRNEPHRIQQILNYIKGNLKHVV
Procedure: Whole cell lysates from treated SK-N-BE(2)-C neuroblastoma cells were taken and the protein levels for HDAC8 and the acetylation of its substrate SMC3 were determined (Figure 6). As a control for HDAC6, we also assessed acetylation levels of α-tubulin. […] Western blot analysis was performed as described previously (Kolbinger et al.).
Figure 6 (A) SK-N-BE(2)-C neuroblastoma cells were treated for indicated time points with 10 µM of PROTACs. Degradation of HDAC8 and acetylation of HDAC8 target was analyzed via Western blot. (B) SK-N-BE(2)-C neuroblastoma cells were treated for 6 h with indicated concentrations of HyT_1p, CRBN_1b and HyT_1m. Acetylation of HDAC8 target SMC3 and HDAC6 target tubulin, as well as total HDAC8 levels, were assessed by Western blot. Quantified ac-SMC3 or ac-tubulin expression, respectively, was normalized to the respective tubulin loading control and to the solvent control (DMSO). This quantification is reflected by the numbers below each blot. […] Total HDAC6, total HDAC1, total HDAC8, and acetyl-histone H4 expression levels, were assessed by Western blot. Total GAPDH protein levels served as a loading control (LC). * unspecific bands obtained through reprobing of the membrane.

Sequence of HDAC1 (Q13547 whole entry): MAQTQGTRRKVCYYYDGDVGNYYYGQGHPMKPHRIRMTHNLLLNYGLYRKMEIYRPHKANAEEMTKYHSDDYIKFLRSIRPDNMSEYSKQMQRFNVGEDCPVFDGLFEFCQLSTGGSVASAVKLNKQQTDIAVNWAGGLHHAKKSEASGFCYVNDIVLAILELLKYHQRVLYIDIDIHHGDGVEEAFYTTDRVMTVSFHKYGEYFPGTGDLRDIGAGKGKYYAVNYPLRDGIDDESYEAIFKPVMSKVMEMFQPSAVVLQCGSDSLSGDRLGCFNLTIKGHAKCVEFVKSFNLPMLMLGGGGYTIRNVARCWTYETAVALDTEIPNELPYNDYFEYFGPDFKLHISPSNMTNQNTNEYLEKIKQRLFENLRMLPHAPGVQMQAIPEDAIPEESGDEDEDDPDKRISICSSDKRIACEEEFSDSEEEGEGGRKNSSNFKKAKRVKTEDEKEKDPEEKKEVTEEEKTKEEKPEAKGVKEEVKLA

## COC(=O)c1ccc(C)c(NCc2ccc(OCc3cn(CCCCCC(=O)Nc4cccc5c4C(=O)N(C4CCC(=O)NC4=O)C5=O)nn3)cc2)c1 (centres unmarked) [33a]
SK-N-BE(2)-C cells
  Effect on colony formation: inactive
HDAC1; negative control
  HDAC1 inhibitory activity: did not demonstrate a strong inhibitory activity
HDAC8
  HDAC8 degradation: did not show hyperacetylation of SMC3 or HDAC8 degradation

## COc1ccc(C(=O)NO)cc1NC(=O)c1ccc(NC(=O)CCCCCCCNc2cccc3c2C(=O)N(C2CCC(=O)NC2=O)C3=O)cc1 (centres unmarked) [CRBN_1b]
SK-N-BE(2)-C cells
  Effect on colony formation: significantly decreased the ability to form colonies
HDAC1
  IC50: > 20 µM
HDAC8; 6 h, 10 µM
  Remaining HDAC8 protein: 40%
HDAC8
  HDAC8 degradation: strong HDAC8 degradation

## O=C(COc1ccc(CNc2cc(C(=O)NO)ccc2Cl)cc1)NCCCCCNC(=O)CC12CC3CC(CC(C3)C1)C2 [HyT_1p]
SK-N-BE(2)-C cells
  Effect on colony formation: significantly decreased the ability to form colonies
HDAC1; 1 µM, read-out: HDAC1 % inhib. at given conc.
  inhibition at 1 µM: 2.3%
HDAC1; 10 µM, read-out: HDAC1 % inhib. at given conc.
  inhibition at 10 µM: 40%
HDAC8
  HDAC8 degradation: failed to degrade HDAC8
